Measured values published in article PMC6010128, “Structure–activity relationship investigation of tertiary amine derivatives of cinnamic acid as acetylcholinesterase and butyrylcholinesterase inhibitors: compared with that of phenylpropionic acid, sorbic acid and hexanoic acid” (Journal of Enzyme Inhibition and Medicinal Chemistry, 2018).

What was measured:
[1] = pKa by pH-titration method; format: physicochemical; settings: read-out: pKa
Description: pKa is determined by pH-titration method according to the report. The titration curve E vs. VT was recorded and pKa value was calculated.

[2] = molecular target: AChE (Rattus norvegicus, UniProt P37136); assay: biochemical; settings: for Selectivity for AChE: IC50 (BChE)/IC50 (AChE); for IC50: rat brain AChE, Mean ± SD, triplicate
[3] = Log P by shake flask method; format: physicochemical; settings: octanol / PBS pH = 7.4, shake flask
Description: Log P is defined as the logarithm of octanol–water partition coefficient. […] Ultraviolet spectrophotometry was applied to determine the concentration of compounds. Log p values were calculated based on the data in triplicate.

[4] = molecular target: BChE (Rattus norvegicus, UniProt Q9JKC1); assay: biochemical; set-up: species or system Sprague–Dawley rat; settings: rat serum BChE, Mean ± SD, triplicate
BChE, sequence (Q9JKC1 24-597): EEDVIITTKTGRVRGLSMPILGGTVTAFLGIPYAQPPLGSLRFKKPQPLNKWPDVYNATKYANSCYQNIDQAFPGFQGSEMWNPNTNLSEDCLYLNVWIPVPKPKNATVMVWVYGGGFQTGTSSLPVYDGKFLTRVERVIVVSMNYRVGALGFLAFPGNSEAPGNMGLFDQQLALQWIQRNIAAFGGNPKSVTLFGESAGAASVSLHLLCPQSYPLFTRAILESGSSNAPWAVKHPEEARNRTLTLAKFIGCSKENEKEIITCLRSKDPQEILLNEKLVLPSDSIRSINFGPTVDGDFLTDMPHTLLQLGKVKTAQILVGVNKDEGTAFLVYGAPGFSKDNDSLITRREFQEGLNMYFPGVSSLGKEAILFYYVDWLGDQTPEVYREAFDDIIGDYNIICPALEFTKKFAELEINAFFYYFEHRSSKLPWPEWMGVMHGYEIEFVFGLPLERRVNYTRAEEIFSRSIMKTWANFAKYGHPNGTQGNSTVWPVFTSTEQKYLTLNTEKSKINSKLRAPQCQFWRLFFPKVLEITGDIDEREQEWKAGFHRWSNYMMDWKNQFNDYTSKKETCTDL

AChE, sequence (P37136 32-614): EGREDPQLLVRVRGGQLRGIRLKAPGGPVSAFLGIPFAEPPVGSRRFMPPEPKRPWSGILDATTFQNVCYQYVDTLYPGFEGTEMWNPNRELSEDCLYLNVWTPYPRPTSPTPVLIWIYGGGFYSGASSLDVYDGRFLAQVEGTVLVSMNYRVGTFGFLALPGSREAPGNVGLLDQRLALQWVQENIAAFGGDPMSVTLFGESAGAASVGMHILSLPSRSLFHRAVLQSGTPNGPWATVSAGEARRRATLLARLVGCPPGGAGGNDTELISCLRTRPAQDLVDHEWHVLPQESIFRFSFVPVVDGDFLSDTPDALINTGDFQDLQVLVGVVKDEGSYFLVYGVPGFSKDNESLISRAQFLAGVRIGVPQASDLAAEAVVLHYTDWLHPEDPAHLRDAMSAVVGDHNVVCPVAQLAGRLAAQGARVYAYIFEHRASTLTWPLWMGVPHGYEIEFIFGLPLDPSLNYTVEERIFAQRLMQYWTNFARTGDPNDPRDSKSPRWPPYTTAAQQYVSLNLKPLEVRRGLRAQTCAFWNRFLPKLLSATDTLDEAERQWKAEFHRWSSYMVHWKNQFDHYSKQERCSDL

| Compound | pKa [1] | Selectivity for AChE [2] | IC50 [2] | logP [3] | IC50 [4] |
| --- | --- | --- | --- | --- | --- |
| CN(C)CCOc1ccccc1NC(=O)C=Cc1ccccc1 [Compound 4d] | 6.96 | 0.07 | 161 ± 2.19 µM | 2.78 | 11.2 ± 0.34 µM |
| CCN(CC)CCOc1ccccc1NC(=O)C=Cc1ccccc1 [Compound 4e] | 7.28 | 0.04 | 197 ± 6.81 µM | 2.81 | 6.99 ± 0.29 µM |
| O=C(C=Cc1ccccc1)Nc1ccccc1OCCN1CCCCC1 [Compound 4f] | 6.85 | 0.01 | 141 ± 7.01 µM | 2.17 | 1.16 ± 0.22 µM |
| O=C(C=Cc1ccccc1)Nc1ccccc1OCCN1CCCC1 [Compound 4g] | 7.33 | 0.01 | 170 ± 8.49 µM | 2.19 | 1.56 ± 0.42 µM |
| CN(C)CCOc1cccc(NC(=O)C=Cc2ccccc2)c1 [Compound 5d] | 6.51 | 1.30 | 20.5 ± 3.13 µM | 0.96 | 26.5 ± 0.56 µM |
| CCN(CC)CCOc1cccc(NC(=O)C=Cc2ccccc2)c1 [Compound 5e] | 7.16 | 0.86 | 49.4 ± 1.91 µM | 2.56 | 42.5 ± 0.67 µM |
| O=C(C=Cc1ccccc1)Nc1cccc(OCCN2CCCCC2)c1 [Compound 5f] | 6.99 | 0.16 | 20.5 ± 1.01 µM | 1.24 | 3.26 ± 0.26 µM |
| O=C(C=Cc1ccccc1)Nc1cccc(OCCN2CCCC2)c1 [Compound 5g] | 7.28 | 1.51 | 8.52 ± 1.23 µM | 2.28 | 12.9 ± 1.18 µM |
| CN(C)CCOc1ccc(NC(=O)C=Cc2ccccc2)cc1 [Compound 6d] | 7.18 | 22.8 | 4.98 ± 0.31 µM | 1.54 | 113 ± 1.36 µM |
| CCN(CC)CCOc1ccc(NC(=O)C=Cc2ccccc2)cc1 [Compound 6e] | 6.97 | 4.16 | 10.6 ± 0.43 µM | 1.22 | 44 ± 3.29 µM |
| O=C(C=Cc1ccccc1)Nc1ccc(OCCN2CCCCC2)cc1 [Compound 6f] | 7.29 |  | 4.35 ± 0.36 µM | 1.4 | 94.5 ± 8.74 µM |
| CN(C)CCOc1ccccc1NC(=O)CCc1ccccc1 [Compound 10d] | 7.19 | 0.13 | 285 ± 4.69 µM | 2.14 | 36.6 ± 1.38 µM |
| CCN(CC)CCOc1ccccc1NC(=O)CCc1ccccc1 [Compound 10e] | 7.23 |  | > 500 µM | 3.22 | 40.1 ± 1.29 µM |
| O=C(CCc1ccccc1)Nc1ccccc1OCCN1CCCCC1 [Compound 10f] | 7.02 | 0.002 | 250 ± 8.21 µM | 1.18 | 0.59 ± 0.09 µM |
| O=C(CCc1ccccc1)Nc1ccccc1OCCN1CCCC1 [Compound 10g] | 6.88 | 0.01 | 209 ± 2.33 µM | 1.3 | 1.87 ± 0.16 µM |
| CN(C)CCOc1cccc(NC(=O)CCc2ccccc2)c1 [Compound 11d] | 6.45 | 0.26 | 59.2 ± 3.34 µM | 1.19 | 15.5 ± 1.21 µM |
| CCN(CC)CCOc1cccc(NC(=O)CCc2ccccc2)c1 [Compound 11e] | 6.51 | 0.08 | 102 ± 3.36 µM | 2.23 | 8.23 ± 0.59 µM |
| O=C(CCc1ccccc1)Nc1cccc(OCCN2CCCCC2)c1 [Compound 11f] | 6.78 | 0.93 | 69 ± 2.64 µM | 3.22 | 64 ± 1.92 µM |
| O=C(CCc1ccccc1)Nc1cccc(OCCN2CCCC2)c1 [Compound 11g] | 6.45 | 1.43 | 58.6 ± 3.85 µM | 2.58 | 84 ± 2.12 µM |
| CN(C)CCOc1ccc(NC(=O)CCc2ccccc2)cc1 [Compound 12d] | 7.26 | 2.82 | 46.8 ± 1.29 µM | 2.44 | 132 ± 5.21 µM |
| CCN(CC)CCOc1ccc(NC(=O)CCc2ccccc2)cc1 [Compound 12e] | 6.52 | 2.50 | 84.6 ± 6.1 µM | 2.58 | 212 ± 4.87 µM |
| O=C(CCc1ccccc1)Nc1ccc(OCCN2CCCCC2)cc1 [Compound 12f] | 7.13 | 6.60 | 34.3 ± 0.89 µM | 1.82 | 226 ± 5.78 µM |
| O=C(CCc1ccccc1)Nc1ccc(OCCN2CCCC2)cc1 [Compound 12g] | 6.8 |  | 24.4 ± 0.76 µM | 2.26 | 98.5 ± 1.09 µM |
| C/C=C/C=C/C(=O)Nc1ccccc1OCCN(C)C [Compound 16d] | 7.25 | 1.11 | 30.7 ± 2.34 µM | 0.63 | 34.1 ± 1.85 µM |
